Key:
[1] = target: Apoptosis regulator Bcl-2 (Homo sapiens, UniProt P10415); assay: Inhibition of 5-FAM-Bid peptide binding to Bcl-2 (unknown origin) by fluorescence polarization assay
Bcl-2-like protein 1 = Bcl-2-like protein 1 (Homo sapiens, UniProt Q07817); assay: Inhibition of 5-FAM-Bid peptide binding to Bcl-XL (unknown origin) by fluorescence polarization assay
[2] = target: Induced myeloid leukemia cell differentiation protein Mcl-1 (Homo sapiens, UniProt Q07820); assay: Inhibition of 5-FAM-Bid peptide binding to MCL-1 (unknown origin) by fluorescence polarization assay
Induced myeloid leukemia cell differentiation protein Mcl-1, sequence (Q07820 whole entry): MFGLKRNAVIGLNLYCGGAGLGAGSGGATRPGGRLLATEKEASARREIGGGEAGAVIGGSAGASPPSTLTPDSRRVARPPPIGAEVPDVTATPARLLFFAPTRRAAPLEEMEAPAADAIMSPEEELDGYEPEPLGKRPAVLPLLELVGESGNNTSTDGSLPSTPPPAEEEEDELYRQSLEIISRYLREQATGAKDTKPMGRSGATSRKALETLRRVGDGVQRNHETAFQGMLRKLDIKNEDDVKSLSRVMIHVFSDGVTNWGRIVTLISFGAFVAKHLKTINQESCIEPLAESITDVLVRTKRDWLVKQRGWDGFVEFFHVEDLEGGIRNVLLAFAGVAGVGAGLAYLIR

Homo sapiens [3] = organism: Homo sapiens; assay: Selectivity index, ratio of Ki for Bcl-2 (unknown origin) to Ki for Bcl-XL (unknown origin)
Homo sapiens [4] = organism: Homo sapiens; assay: Selectivity index, ratio of Ki for Bcl-2 (unknown origin) to Ki for MCL-1 (unknown origin)
[5] = Growth inhibition of human HL60 cells after 72 hrs by MTT assay; assay type: functional, cell-based; settings: HL-60, 72 h
[6] = Growth inhibition of human U266 cells after 72 hrs by MTT assay; assay type: functional, cell-based; settings: U-266, 72 h
[7] = Growth inhibition of human MCF7 cells after 72 hrs by MTT assay; assay type: functional, cell-based; settings: MCF7, 72 h
[8] = Growth inhibition of human SKOV3 cells after 72 hrs by MTT assay; assay type: functional, cell-based; settings: SK-OV-3, 72 h
[9] = Growth inhibition of human NCI-H23 cells after 72 hrs by MTT assay; assay type: functional, cell-based; settings: NCI-H23, 72 h

Bcl-2-like protein 1, sequence (Q07817 whole entry): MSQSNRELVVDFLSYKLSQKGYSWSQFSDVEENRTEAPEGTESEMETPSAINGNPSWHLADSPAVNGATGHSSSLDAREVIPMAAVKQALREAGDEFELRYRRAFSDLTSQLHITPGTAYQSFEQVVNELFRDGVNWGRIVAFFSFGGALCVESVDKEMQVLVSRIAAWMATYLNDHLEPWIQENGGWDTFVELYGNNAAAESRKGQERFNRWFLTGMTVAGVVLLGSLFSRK
Apoptosis regulator Bcl-2, sequence (P10415 whole entry): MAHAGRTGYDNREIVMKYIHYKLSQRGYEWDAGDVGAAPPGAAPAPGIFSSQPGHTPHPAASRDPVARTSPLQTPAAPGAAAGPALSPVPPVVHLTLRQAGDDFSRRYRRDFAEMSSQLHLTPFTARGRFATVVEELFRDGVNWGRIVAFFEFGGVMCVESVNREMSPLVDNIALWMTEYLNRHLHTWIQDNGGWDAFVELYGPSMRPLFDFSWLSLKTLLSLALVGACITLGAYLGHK

Cc1ccc(/C=C/C(=O)Nc2ccc(C(=O)NS(=O)(=O)c3ccc(NCCSc4ccccc4)c([N+](=O)[O-])c3)cc2)cc1
Ki [1]: 1500 nM
Ki (Bcl-2-like protein 1): 130 nM
Ki [2]: 630 nM
Ratio Ki (Homo sapiens [3]): 12
Ratio Ki (Homo sapiens [4]): 2

COc1ccc(/C=C/C(=O)Nc2ccc(C(=O)NS(=O)(=O)c3ccc(NCCSc4ccccc4)c([N+](=O)[O-])c3)cc2)cc1
Ki [1]: 1300 nM
Ki (Bcl-2-like protein 1): 70 nM
Ki [2]: 590 nM
Ratio Ki (Homo sapiens [3]): 19
Ratio Ki (Homo sapiens [4]): 2

COc1ccccc1/C=C/C(=O)Nc1ccc(C(=O)NS(=O)(=O)c2ccc(NCCSc3ccccc3)c([N+](=O)[O-])c2)cc1
Ki [1]: 720 nM
Ki (Bcl-2-like protein 1): 90 nM
Ki [2]: 8600 nM
Ratio Ki (Homo sapiens [3]): 8
Ratio Ki (Homo sapiens [4]): < 1

Cc1cccc(/C=C/C(=O)Nc2ccc(C(=O)NS(=O)(=O)c3ccc(NCCSc4ccccc4)c([N+](=O)[O-])c3)cc2)c1
Ki [1]: 1700 nM
Ki (Bcl-2-like protein 1): 160 nM
Ki [2]: 440 nM
Ratio Ki (Homo sapiens [3]): 11
Ratio Ki (Homo sapiens [4]): 4

O=C(/C=C/c1ccc(Cl)cc1)Nc1ccc(C(=O)NS(=O)(=O)c2ccc(NCCSc3ccccc3)c([N+](=O)[O-])c2)cc1
Ki [1]: 1100 nM
Ki (Bcl-2-like protein 1): 210 nM
Ki [2]: 2700 nM
Ratio Ki (Homo sapiens [3]): 5
Ratio Ki (Homo sapiens [4]): < 1

Cc1cc2c(C(C)C)c(O)c(O)c(C=O)c2c(O)c1-c1c(C)cc2c(C(C)C)c(O)c(O)c(C=O)c2c1O [GOSSYPOL]
Ki [2]: 640 nM

Cc1ccccc1/C=C/C(=O)Nc1ccc(C(=O)NS(=O)(=O)c2ccc(NCCSc3ccccc3)c([N+](=O)[O-])c2)cc1
Ki [1]: 1700 nM
Ki (Bcl-2-like protein 1): 210 nM
Ki [2]: 830 nM
Ratio Ki (Homo sapiens [3]): 8
Ratio Ki (Homo sapiens [4]): 2

O=C(/C=C/c1ccc(C(F)(F)F)cc1)Nc1ccc(C(=O)NS(=O)(=O)c2ccc(NCCSc3ccccc3)c([N+](=O)[O-])c2)cc1
Ki [1]: 2000 nM
Ki (Bcl-2-like protein 1): 510 nM
Ki [2]: 1700 nM
Ratio Ki (Homo sapiens [3]): 4
Ratio Ki (Homo sapiens [4]): 1

COc1cccc(/C=C/C(=O)Nc2ccc(C(=O)NS(=O)(=O)c3ccc(NCCSc4ccccc4)c([N+](=O)[O-])c3)cc2)c1
Ki [1]: 1900 nM
Ki (Bcl-2-like protein 1): 110 nM
Ki [2]: 800 nM
Ratio Ki (Homo sapiens [3]): 17
Ratio Ki (Homo sapiens [4]): 2

O=C(Nc1ccc(C(=O)NS(=O)(=O)c2ccc(NCCSc3ccccc3)c([N+](=O)[O-])c2)cc1)c1ccccc1
Ki [1]: 1700 nM
Ki (Bcl-2-like protein 1): 630 nM
Ki [2]: 6700 nM
Ratio Ki (Homo sapiens [3]): 3
Ratio Ki (Homo sapiens [4]): < 1

O=C(/C=C/c1ccccc1)Nc1ccc(C(=O)NS(=O)(=O)c2ccc(NCCSc3ccccc3)c([N+](=O)[O-])c2)cc1
Ki [1]: 4900 nM
Ki (Bcl-2-like protein 1): 140 nM
Ki [2]: 1600 nM
Ratio Ki (Homo sapiens [3]): 35
Ratio Ki (Homo sapiens [4]): 3

O=C(/C=C/c1ccccc1Cl)Nc1ccc(C(=O)NS(=O)(=O)c2ccc(NCCSc3ccccc3)c([N+](=O)[O-])c2)cc1
Ki [1]: 600 nM
Ki (Bcl-2-like protein 1): 120 nM
Ki [2]: 14000 nM
Ratio Ki (Homo sapiens [3]): 5
Ratio Ki (Homo sapiens [4]): < 1

CN(C)CC[C@H](CSc1ccccc1)Nc1ccc(S(=O)(=O)NC(=O)c2ccc(N3CCN(Cc4ccccc4-c4ccc(Cl)cc4)CC3)cc2)cc1[N+](=O)[O-] [ABT 737]
IC50 [5]: 970 nM
IC50 [6]: 27400 nM
IC50 [7]: 25300 nM
IC50 [8]: 46600 nM
IC50 [9]: 71200 nM

O=C(/C=C/c1cccc(Cl)c1)Nc1ccc(C(=O)NS(=O)(=O)c2ccc(NCCSc3ccccc3)c([N+](=O)[O-])c2)cc1
Ki [1]: 1300 nM
Ki (Bcl-2-like protein 1): 290 nM
Ki [2]: 1300 nM
Ratio Ki (Homo sapiens [3]): 4
Ratio Ki (Homo sapiens [4]): 1

O=C(/C=C/c1cccc(C(F)(F)F)c1)Nc1ccc(C(=O)NS(=O)(=O)c2ccc(NCCSc3ccccc3)c([N+](=O)[O-])c2)cc1
Ki [1]: 2600 nM
Ki (Bcl-2-like protein 1): 290 nM
Ki [2]: 5400 nM
Ratio Ki (Homo sapiens [3]): 9
Ratio Ki (Homo sapiens [4]): < 1

O=C(NS(=O)(=O)c1ccc(NCCSc2ccccc2)c([N+](=O)[O-])c1)c1ccc(C(=O)c2ccccc2)cc1
Ki [1]: 3400 nM
Ki (Bcl-2-like protein 1): 330 nM
Ki [2]: 4000 nM
Ratio Ki (Homo sapiens [3]): 10
Ratio Ki (Homo sapiens [4]): 1

O=C(/C=C/c1ccccc1C(F)(F)F)Nc1ccc(C(=O)NS(=O)(=O)c2ccc(NCCSc3ccccc3)c([N+](=O)[O-])c2)cc1
Ki [1]: 1700 nM
Ki (Bcl-2-like protein 1): 170 nM
Ki [2]: 660 nM
Ratio Ki (Homo sapiens [3]): 10
Ratio Ki (Homo sapiens [4]): 3

C=C(c1ccc(C(=O)Nc2ccc(C(=O)NS(=O)(=O)c3ccc(NCCSc4ccccc4)c([N+](=O)[O-])c3)cc2)cc1)c1cc2c(cc1C)C(C)(C)CCC2(C)C
Ki [1]: 3100 nM
Ki (Bcl-2-like protein 1): > 20000 nM
Ki [2]: 290 nM
Ratio Ki (Homo sapiens [3]): < 1
Ratio Ki (Homo sapiens [4]): 11
IC50 [5]: 2920 nM
IC50 [6]: 6950 nM
IC50 [7]: 260 nM
IC50 [8]: 7830 nM
IC50 [9]: 8380 nM

C=C(c1ccc(C(=O)NS(=O)(=O)c2ccc(NCCSc3ccccc3)c([N+](=O)[O-])c2)cc1)c1cc2c(cc1C)C(C)(C)CCC2(C)C
Ki [1]: 4200 nM
Ki (Bcl-2-like protein 1): > 20000 nM
Ki [2]: 60 nM
Ratio Ki (Homo sapiens [3]): < 1
Ratio Ki (Homo sapiens [4]): 70
IC50 [5]: 4860 nM
IC50 [6]: 7630 nM
IC50 [7]: 2250 nM
IC50 [8]: 7640 nM
IC50 [9]: 7400 nM

O=C(CCc1ccccc1)Nc1ccc(C(=O)NS(=O)(=O)c2ccc(NCCSc3ccccc3)c([N+](=O)[O-])c2)cc1
Ki [1]: 4400 nM
Ki (Bcl-2-like protein 1): 320 nM
Ki [2]: 6900 nM
Ratio Ki (Homo sapiens [3]): 14
Ratio Ki (Homo sapiens [4]): 1

O=C(Cc1ccccc1)Nc1ccc(C(=O)NS(=O)(=O)c2ccc(NCCSc3ccccc3)c([N+](=O)[O-])c2)cc1
Ki [1]: 4000 nM
Ki (Bcl-2-like protein 1): 450 nM
Ki [2]: 5600 nM
Ratio Ki (Homo sapiens [3]): 9
Ratio Ki (Homo sapiens [4]): 1
